# Results reported in article PMC12186697, “HypoxyStat, a small-molecule form of hypoxia therapy that increases oxygen-hemoglobin affinity” (Cell, 2025).
# Tests used:
# Ndufs4 KO mouse = Ndufs4 KO mouse model of Leigh syndrome (survival, body weight, temperature, behavior, neuropathology); assay type: in vivo
# Source text: We continuously bred Ndufs4 Het x Het mice to generate KO and controls for our experiments. Ndufs4+/− and WT mice were used as controls as they are identical in all previously reported assays. Ndufs4 mice were obtained directly from Jackson labs (#027058). Pups were weaned and genotyped at ~21 d after birth. The age of mice at the time of experiments is described throughout the text. Male and female mice were used throughout studies. All cages were provided with food and water, with hydrated gel provided to newly weaned cages. Body weights were recorded at every dosing. Mice were euthanized according to guidelines at 20% drop in peak body weight. All animal studies were approved by the Institutional Animal Care & Use Committee (IACUC) Program at UCSF/Gladstone.
# Mice were administered HypoxyStat at 600 mg/kg every other day or 400mg/kg daily via oral gavage. For the disease prevention experiments, KO mice that underwent daily dosing were dosed starting ~P30 for 1 week of 200mg/kg daily, followed by 400mg/kg daily to allow for gradual dose escalation. For the reversal study, KO mice were dosed once with 200mg/kg on postnatal day ~P55, followed by 400mg/kg daily. HypoxyStat was formulated as a suspension at 60 mg/mL, 40mg/ml or 80mg/ml depending on dose in 0.5%HPMC and stored at 4 °C. The formulation was determined to be stable for at least 8 weeks. Animal body weight was taken at time of dosing to determine appropriate dosing volume (10 mL/kg for every other day dosing, 5ml/kg for daily dosing). Vehicle treated mice were administered the same volume of 0.5% HPMC.
# Mice were euthanized via CO2 inhalation. To perfuse the whole body, the right atrium was nicked and a needle was inserted into the left ventricle. Ice-cold PBS was slowly injected first, followed immediately by 4% PFA solution. The brain was removed, stored in 4% PFA for 24–48 h, and then washed with PBS for 5 min (3 times). The brains were placed in 70% ethanol followed by paraffin embedding. For paraffin sections, brains were sagittally sectioned at 5 μm thickness. Prior to staining, sections were deparaffinized. Antigen retrieval was performed by heating the slides to boiling temperature in 10 mM sodium citrate solution (pH 6) in a microwave, followed by heating for 10 minutes. The sections were rinsed 3 times for 5 minutes each with PBS. They were then incubated in a blocking solution containing 5% donkey serum (DS) in PBS-Tx (PBS with 0.2% Triton X-100) for 60 minutes at room temperature. After blocking, sections were incubated overnight at 4C with the primary antibody IBA1 (Genetex GTX100042, 1:250) and NeuN (Sigma, MAB377, 1:500). Afterward, the sections were rinsed 3 times for 5 minutes with PBS-Tx. Next, they were incubated with a fluorophore-conjugated secondary antibodies (Invitrogen, A21206 or A31570) for 1 hour at room temperature. Following secondary antibody incubation, the sections were rinsed 3 times for 5 minutes with PBS-Tx, and then once for 5 minutes with PBS. Histology was quantified using either the percentage of Iba1+ positive signal or blinded scoring (on the scale of 1–5).
# The open field instrument (San Diego Instruments) was used to measure spontaneous locomotor activity. Mice were placed in open field chambers and allowed to acclimate for 5 min before movement tracking for 20min. Spontaneous locomotor activity was measured based on beam breaks and recorded by the instrument. Age of measurements is +/− 5 days for practical purposes without any age bias between groups.
# [1] = system: hypoxia transcriptional response (HIF); assay: Hypoxia biomarkers in mice (plasma Epo, hematocrit, blood glucose, hypoxia-induced brain transcripts); assay type: in vivo, mouse
# Protocol: Plasma Epo measurements were performed with R&D Systems Epo Elisa Kit (MEP00B) according to manufacturer directions. Briefly, whole blood was collected with anticoagulant before centrifugation within 30 minutes of collection and stored at −80C until day of analysis. On the day of Epo assay, samples were thawed and diluted 2-fold and incubated in the assay plate for two hours. Each well was washed five times before the addition of Epo Conjugate followed by a two-hour incubation. Each well was washed five times before adding Substrate Solution to develop for 30 minutes before addition of Stop Solution. The optical density of each well was determined at 450nm and correction wavelength of 540/570.
# Hematocrit was determined with an iStat VetScan 1 with Zoetis Chem 8+ cartridges. Blood glucose measurements were performed using OneTouch UltraPlus glucometer. Whole blood chemistry measurements were performed on a VetScan HM5.
# Half of the hindbrain was collected at necropsy and immediately flash frozen. For RNA extraction, a stainless-steel bead (Qiagen) and 1 mL TRIzol™ Reagent (Thermo Fisher Scientific) were added to the frozen samples, which were rapidly lysed using a tissue lyser (Qiagen) for five 1-minute cycles of 30 Hz frequency. Subsequent steps for RNA isolation were identical as previously described.[9] Reverse transcription was performed using the QuantiTect Reverse Transcription Kit (Qiagen) instructions. Briefly, gDNA was wiped out from samples containing 1 μg RNA. gDNA-free RNA samples were reverse transcribed following Qiagen’s instructions. […] For each set of triplicates, an average CT value was obtained, and the difference in average CT between the target gene and β-actin was calculated (ΔCT). Next, the difference in ΔCT value between each sample and the average of the normoxia samples was calculated (ΔΔCT). Relative expression of each gene was determined by calculating 2^−ΔΔCT.
smiles,measurement,setting,value
O=Cc1ccccc1C(=O)N1CCCC[C@H]1COc1cccc(O)c1C=O [HypoxyStat],lifespan increase of Ndufs4 KO mice,Ndufs4 KO mouse; 400 mg/kg daily oral gavage from P30 (1 week at 200 mg/kg),3–4 ×
same,tolerability of chronic dosing in control (WT or heterozygous) mice,"Ndufs4 KO mouse; 600 mg/kg every other day or 400 mg/kg daily, all control mice survived",well tolerated
same,lifespan increase of Ndufs4 KO mice,Ndufs4 KO mouse; 600 mg/kg every other day oral gavage from P30,1.5–2 ×
same,body temperature of Ndufs4 KO mice,Ndufs4 KO mouse; HypoxyStat from P30,restored body temperature to normal levels
same,motor coordination (rotarod) and spontaneous activity (open field) of KO mice,Ndufs4 KO mouse; HypoxyStat from P30,significantly improved motor coordination and spontaneous activity
same,body weight of drug-treated KO mice,"Ndufs4 KO mouse; HypoxyStat from P30, comparable with inhaled hypoxia",increased body weight
same,lesion severity (Iba1 staining for microglial activation) at P50,"Ndufs4 KO mouse; KO mice treated from P30, p < 0.05 vs vehicle",significant reduction in lesion severity
same,circulating Epo and 5 hypoxia-induced transcripts in hindbrain,"[1]; 400 mg/kg daily, 48 h, compared with inhaled hypoxia (11% O2)",induced to an equivalent or greater degree
same,Epo and hematocrit with increasing dose,"[1]; oral gavage 3 times per week for 12 days, up to 600 mg/kg",substantial increases in both Epo and hematocrit
